According to US20210127719A1, “AROMATIC MIXTURE FOR REDUCING THE ODOR OR TASTE OF BIOGENIC AMINES” (SYMRISE AG, priority 2016, published 2021):

What was measured:
[1] = Fish sauce triangle test with odor description
Source text: The panelists received the following instruction: Please smell the three samples and mark the sensorially deviating samples with a cross. In any case, one of the samples must be ticked, even if no difference can be noted.

[2] = Panel rating of odor attributes of soy sauce containing biogenic amines, with and without added compound; settings: panelists n=6-8, scale 0-10, versus product alone
Source text: The panelists (n=6-8) rate the attributes animalistic—fishy, metallic as well as woody, sweet, flowery and terpenic, herbal on an unstructured scale from 0 (no taste)—10 (strong taste). Thereby, the order is arbitrary and not known by the panelists beforehand.

[3] = dosage of the compound 0.1 mg/kg
[4] = dosage of the compound 0.5 mg/kg

## CC1=CC(C)C(C=O)C(C)C1 (centres unmarked) [Isocyclocitral]
[1]; dosage of the compound 1 mg/kg
  Odor description: bready, rounded,

## CC(=O)/C=C/C1C(C)=CCCC1(C)C (stereo not drawn) [Alpha ionone, (E)-4-(2,6,6-trimethylcyclohex-2-en-1-yl)but-3-en-2-one]
[2]; dosage of the compound 1 mg/kg
  Odor description (indication of relative change in percent) Animalistic-fishy, metallic: −20.5%
  Odor description (indication of relative change in percent) Terpenig, herbal: −7.6%
  Odor description (indication of relative change in percent) Woody, sweet, flowery: −4.4%
[1]; [3]
  Odor description: bready, earthy,

## CCc1ncc(C)nc1CC [2,3-Diethyl-5-methyl-pyrazine, 2,3-diethyl-5-methyl-pyrazine]
[1]; [3]
  Odor description: metallic, dusty,

## C/C=C/C(=O)C1C(C)=CCCC1(C)C (stereo not drawn) [Alpha-damascone, (E)-1-(2,6,6-trimethylcyclohex-2-en-1-yl)but-2-en-1-one]
[1]; dosage of the compound 0.2 mg/kg
  Odor description: cocoa note, sweet,

## CC(=O)/C=C/C1=C(C)CCCC1(C)C [Beta ionone, (E)-4-(2,6,6-trimethylcyclohex-1-en-1-yl)but-3-en-2-one]
[2]; dosage of the compound 2 mg/kg
  Odor description (indication of relative change in percent) Animalistic-fishy, metallic: 2.4%
  Odor description (indication of relative change in percent) Terpenig, herbal: −28.9%
  Odor description (indication of relative change in percent) Woody, sweet, flowery: 51.9%
[1]; [4]
  Odor description: less silage notes,

## CC(=O)/C=C/C12OC1(C)CCCC2(C)C (stereo not drawn) [Beta epoxyionone, (E)-4-(1,5,5-trimethyl-7-oxabicyclo[4.1.0]heptan-6-yl)but-3-en-2-one]
[2]; [4]
  Odor description (indication of relative change in percent) Animalistic-fishy, metallic: −5.4%
  Odor description (indication of relative change in percent) Terpenig, herbal: 21.1%
  Odor description (indication of relative change in percent) Woody, sweet, flowery: 22.8%

## CC(=O)CCC1=C(C)CCCC1(C)C [Dihydroionone]
[2]; [4]
  Odor description (indication of relative change in percent) Animalistic-fishy, metallic: 8.9%
  Odor description (indication of relative change in percent) Terpenig, herbal: −8.3%
  Odor description (indication of relative change in percent) Woody, sweet, flowery: 9.5%

## CCC(O)CCC1C(C)CCCC1(C)C (centres unmarked) [Madranol, 1-(2,2,6-trimethylcyclohexyl)pentan-3-ol]
[2]; dosage of the compound 1 mg/kg
  Odor description (indication of relative change in percent) Animalistic-fishy, metallic: −13.9%
  Odor description (indication of relative change in percent) Terpenig, herbal: −6.0%
  Odor description (indication of relative change in percent) Woody, sweet, flowery: 6.6%

## CC1CCc2nccnc21 (centres unmarked) [5-Methyl-6,7-dihydrocyclopentapyrazine, 5-methyl-6,7-dihydro-5H-cyclopenta[b]pyrazine]
[2]; [4]
  Odor description (indication of relative change in percent) Animalistic-fishy, metallic: −7.4%
  Odor description (indication of relative change in percent) Terpenig, herbal: −5.2%
  Odor description (indication of relative change in percent) Woody, sweet, flowery: −10.0%
[1]; dosage of the compound 0.05 mg/kg
  Odor description: not fishy, less silage notes,

## CC1=CC=C2C(C)(C)CCCC2(C)O1 (centres unmarked) [Cycloionone, 2,5,5,8a-tetramethyl-7,8-dihydro-6H-chromene]
[2]; [4]
  Odor description (indication of relative change in percent) Animalistic-fishy, metallic: 2.3%
  Odor description (indication of relative change in percent) Terpenig, herbal: 19.6%
  Odor description (indication of relative change in percent) Woody, sweet, flowery: 33.8%

## CC1=CCCC(C)(C)C1/C=C/C(C)O (stereo not drawn) [Alpha-Ionol, (E)-4-(2,6,6-trimethylcyclohex-2-en-1-yl)but-3-en-2-ol]
[1]; [4]
  Odor description: bready, earthy, rounded

## CCCC(O)CCC1C(C)CCCC1(C)C (centres unmarked) [Timberol, 1-(2,2,6-trimethylcyclohexyl)hexan-3-ol]
[2]; dosage of the compound 1 mg/kg
  Odor description (indication of relative change in percent) Animalistic-fishy, metallic: −26.5%
  Odor description (indication of relative change in percent) Terpenig, herbal: −3.8%
  Odor description (indication of relative change in percent) Woody, sweet, flowery: 27.9%

## C/C=C/C=C1/C(C)=CC(=O)CC1(C)C [Tabanon, (4E)-4-[(E)-but-2-enylidene]-3,5,5-trimethyl-cyclohex-2-en-1-one]
[2]; dosage of the compound 1 mg/kg
  Odor description (indication of relative change in percent) Animalistic-fishy, metallic: −18.8%
  Odor description (indication of relative change in percent) Terpenig, herbal: −8.2%
  Odor description (indication of relative change in percent) Woody, sweet, flowery: 13.7%
[1]; [4]
  Odor description: bready, less
